Data as given in PubChem BioAssay (NCI).
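How tested: cells in 96-well plates exposed to compound for 48 hours at five concentrations. At the TGI there is no net growth.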

Key:
Experiment in all cases: inhibition of tumour cell growth, NCI panel, 48 h
[1] = system: NCI-H23 lung
[2] = system: SK-MEL-2 melanoma
[3] = system: HOP-92 NSCLC
[4] = system: HCC-2998 colon
[5] = system: HS 578T breast
[6] = system: SK-MEL-5 melanoma
[7] = system: MDA-MB-435
[8] = system: MDA-MB-231 breast
[9] = system: LOX IMVI melanoma
[10] = system: HCT-15 colon
[11] = system: SR leukemia
[12] = system: OVCAR-5 ovarian
[13] = system: RXF 393 renal
[14] = system: NCI-H460 lung
[15] = system: TK-10 renal
[16] = system: SK-OV-3 ovarian
[17] = system: EKVX NSCLC
[18] = system: UACC-257 melanoma
[19] = system: K-562 leukemia
[20] = system: T-47D breast
[21] = system: RPMI-8226 leukemia
[22] = system: MDA-N
[23] = system: NCI/ADR-RES ovarian
[24] = system: HOP-62 NSCLC
[25] = system: HT29 colon
[26] = system: SF-295 CNS
[27] = system: MCF7 breast
[28] = system: NCI-H522 lung
[29] = system: A498 renal
[30] = system: UO-31 renal
[31] = system: COLO 205 colon
[32] = system: A549 NSCLC
[33] = system: CCRF-CEM leukemia
[34] = system: SNB-19 CNS
[35] = system: 786-0 renal
[36] = system: HCT-116 colon
[37] = system: U251 CNS
[38] = system: BT-549 breast
[39] = system: SW-620 colon
[40] = system: MOLT-4 leukemia
[41] = system: M14 melanoma
[42] = system: IGROV1 ovarian
[43] = system: CAKI-1 renal
[44] = system: SNB-75 CNS
[45] = system: MALME-3M melanoma
[46] = system: SF-268 CNS
[47] = system: ACHN renal
[48] = system: UACC-62 melanoma
[49] = system: KM12 colon
[50] = system: HL-60(TB) leukemia
[51] = system: OVCAR-8 ovarian
[52] = system: PC-3 prostate
[53] = system: OVCAR-3 ovarian
[54] = system: SN12C renal
[55] = system: SF-539 CNS
[56] = system: DU-145 prostate
[57] = system: SK-MEL-28 melanoma
[58] = system: OVCAR-4 ovarian
[59] = system: NCI-H226 lung

SMILES: O=C1N[C@@H]2c3c(csc3Br)C(=O)[C@@H]2O1
- TGI [1]: > 100 µM
- TGI [2]: > 100 µM
- TGI [3]: 59.3 µM
- TGI [4]: 39.1 µM
- TGI [5]: > 100 µM
- TGI [6]: > 100 µM
- TGI [7]: 46.9 µM
- TGI [8]: > 100 µM
- TGI [9]: 41.3 µM
- TGI [10]: > 100 µM
- TGI [11]: 74.1 µM
- TGI [12]: > 100 µM
- TGI [13]: 43.7 µM
- TGI [14]: > 100 µM
- TGI [15]: 80.3 µM
- TGI [16]: > 100 µM
- TGI [17]: > 100 µM
- TGI [18]: 58.9 µM
- TGI [19]: 53.4 µM
- TGI [20]: 99 µM
- TGI [21]: 85.1 µM
- TGI [22]: 67.6 µM
- TGI [23]: > 100 µM
- TGI [24]: > 100 µM
- TGI [25]: > 100 µM
- TGI [26]: > 100 µM
- TGI [27]: > 100 µM
- TGI [28]: 68.3 µM
- TGI [29]: > 100 µM
- TGI [30]: 58.4 µM
- TGI [31]: > 100 µM
- TGI [32]: > 100 µM
- TGI [33]: 40.1 µM
- TGI [34]: > 100 µM
- TGI [35]: > 100 µM
- TGI [36]: > 100 µM
- TGI [37]: 69.2 µM
- TGI [38]: > 100 µM
- TGI [39]: 50.5 µM
- TGI [40]: 52.4 µM
- TGI [41]: > 100 µM
- TGI [42]: > 100 µM
- TGI [43]: 43.1 µM
- TGI [44]: > 100 µM
- TGI [45]: > 100 µM
- TGI [46]: > 100 µM
- TGI [47]: > 100 µM
- TGI [48]: > 100 µM
- TGI [49]: > 100 µM
- TGI [50]: 64.9 µM
- TGI [51]: 57.6 µM
- TGI [52]: > 100 µM
- TGI [53]: 47.8 µM
- TGI [54]: > 100 µM
- TGI [55]: > 100 µM
- TGI [56]: > 100 µM
- TGI [57]: > 100 µM

SMILES: CCOc1ccc2nc(NC(=O)/C(CC(=O)CC(C3=C(O)c4ccccc4CC3=O)c3ccccc3)=N\O)sc2c1 (centres undefined)
- TGI [1]: > 100 µM
- TGI [2]: > 100 µM
- TGI [3]: > 100 µM
- TGI [4]: > 100 µM
- TGI [5]: > 100 µM
- TGI [6]: > 100 µM
- TGI [7]: > 100 µM
- TGI [8]: > 100 µM
- TGI [9]: > 100 µM
- TGI [10]: > 100 µM
- TGI [11]: > 100 µM
- TGI [12]: > 100 µM
- TGI [13]: > 100 µM
- TGI [14]: > 100 µM
- TGI [16]: > 100 µM
- TGI [17]: > 100 µM
- TGI [18]: > 100 µM
- TGI [19]: > 100 µM
- TGI [20]: > 100 µM
- TGI [21]: > 100 µM
- TGI [22]: > 100 µM
- TGI [23]: > 100 µM
- TGI [25]: > 100 µM
- TGI [26]: > 100 µM
- TGI [27]: > 100 µM
- TGI [28]: > 100 µM
- TGI [29]: > 100 µM
- TGI [30]: > 100 µM
- TGI [31]: > 100 µM
- TGI [32]: > 100 µM
- TGI [33]: > 100 µM
- TGI [34]: > 100 µM
- TGI [35]: > 100 µM
- TGI [36]: > 100 µM
- TGI [37]: > 100 µM
- TGI [58]: > 100 µM
- TGI [38]: > 100 µM
- TGI [39]: > 100 µM
- TGI [40]: > 100 µM
- TGI [59]: > 100 µM
- TGI [41]: > 100 µM
- TGI [42]: > 100 µM
- TGI [43]: > 100 µM
- TGI [44]: > 100 µM
- TGI [45]: > 100 µM
- TGI [46]: > 100 µM
- TGI [47]: > 100 µM
- TGI [48]: > 100 µM
- TGI [49]: > 100 µM
- TGI [50]: > 100 µM
- TGI [51]: > 100 µM
- TGI [52]: > 100 µM
- TGI [53]: > 100 µM
- TGI [54]: > 100 µM
- TGI [55]: > 100 µM
- TGI [56]: > 100 µM
- TGI [57]: > 100 µM
